Calls of active or inactive are those of the source. No cut-off for these calls is given here.
What was measured:
[1] = Selectivity index, ratio of IC50 for human L02 cells to IC50 for human SMMC-7721 cells by MTT assay; format: toxicity; settings: L02 cells versus SMMC-7721 cells, read-out: Ratio IC50
[2] = Selectivity index, ratio of IC50 for human L02 cells to IC50 for human HeLa cells by MTT assay; format: toxicity; settings: L02 cells versus HeLa cells, read-out: Ratio IC50
[3] = Cytotoxicity against human L02 cells assessed as cell viability at 10 uM incubated for 48 hrs by MTT assay; format: toxicity, cell-based; settings: read-out: Activity
[4] = Selectivity index, ratio of IC50 for human L02 cells to IC50 for human Huh-7 cells by MTT assay; format: toxicity; settings: L02 cells versus Huh-7 cells, read-out: Ratio IC50
[5] = system: Huh-7; assay: Antiproliferative activity against human Huh-7 cells assessed as reduction in cell viability incubated for 48 hrs by MTT assay; format: functional, cell-based; settings: Huh-7, 48 h
[6] = target: T1, Nuclear receptor subfamily 4immunitygroup A member 1 (Homo sapiens, UniProt P22736); assay: Modulation of Myc-Nur77 (unknown origin) transfected in HEK293T cells assessed as induction of Nur77 translocation from nucleus to cytoplasm at 10 uM incubated for 2 to 4 hrs by western blot analysis; format: cell-based; settings: filed as modulator, time 2-4 hrs
[7] = system: SMMC-7721; assay: Antiproliferative activity against human SMMC-7721 cells assessed as reduction in cell viability incubated for 48 hrs by MTT assay; format: functional, cell-based; settings: SMMC-7721, 48 h
[8] = system: MDA-MB-231; assay: Antiproliferative activity against human MDA-MB-231 cells assessed as reduction in cell viability incubated for 48 hrs by MTT assay; format: functional, cell-based; settings: MDA-MB-231, 48 h
[9] = system: HepG2; assay: Antiproliferative activity against human HepG2 cells assessed as cell viability at 10 uM incubated for 48 hrs by MTT assay; format: functional; settings: read-out: Activity
[10] = Toxicity in BALB/c nude mouse xenografted with human HepG2 cells assessed as effect on lung damage at 50 mg/kg ip administered once every day for 14 days by H and E staining based analysis; format: organism-based; settings: in vivo, 336 h, time 14 day
[11] = system: HeLa; assay: Antiproliferative activity against human HeLa cells assessed as cell viability at 10 uM incubated for 48 hrs by MTT assay; format: functional; settings: read-out: Activity
[12] = target: T1, Nuclear receptor subfamily 4immunitygroup A member 1; assay: Modulation of Myc-Nur77-LBD (unknown origin) transfected in human HepG2 cells assessed as induction of Nur77 translocation from nucleus to mitochondria at 10 uM incubated for 3 hrs by confocal microscopy; settings: filed as modulator
[13] = system: HepG2; assay: Induction of apoptosis in Nur77 overexpressing human HepG2 cells transfected with Myc-Nur77 assessed as induction of PARP cleavage at 5 uM incubated for 12 hrs by western blot analysis; format: functional, cell-based
[14] = system: HepG2; assay: Antitumor activity against human HepG2 cells xenografted in BALB/c nude mouse assessed as induction of nuclear shrinkage in tumor tissues at 50 mg/kg, ip administered once every day for 14 days by H and E staining based analysis; format: functional, organism-based; settings: time 14.0 day
[15] = system: HepG2; assay: Induction of apoptosis in human HepG2 cells transfected with Nur77 siRNA assessed as viable cells at 10 uM incubated for 12 hrs by AnnexinV-FITC/PI staining based flow cytometry (reference value: 96.34%); format: functional; settings: read-out: Activity
[16] = Cytotoxicity against human L02 cells assessed as reduction in cell viability incubated for 48 hrs by MTT assay; format: toxicity, cell-based
[17] = Toxicity in Zebra fish AB embryo assessed as induction of morphological abnormalities at 0.5 uM incubated for 72 hrs; set-up: species or system Danio rerio; settings: zebrafish
[18] = system: HepG2; assay: Induction of apoptosis in human HepG2 cells assessed as viable cells at 10 uM incubated for 12 hrs by AnnexinV-FITC/PI staining based flow cytometry (reference value: 96.32%); format: functional; settings: read-out: Activity
[19] = system: HepG2; assay: Antitumor activity against human HepG2 cells xenografted in BALB/c nude mouse assessed as inhibition of tumor volume at 50 mg/kg, ip administered once every day for 14 days; format: functional, organism-based; settings: time 14.0 day
[20] = system: HepG2; assay: Induction of apoptosis in human HepG2 cells transfected with Nur77 siRNA assessed as late necrotic cells at 10 uM incubated for 12 hrs by AnnexinV-FITC/PI staining based flow cytometry (reference value: 0.3%); format: functional
[21] = system: HepG2; assay: Antitumor activity against human HepG2 cells xenografted in BALB/c nude mouse assessed as increase in cleaved caspase 3 expression in tumor tissues at 50 mg/kg, ip administered once every day for 14 days by immunohistochemistry analysis; format: functional, organism-based; settings: time 14.0 day
[22] = target: T2, Peroxisome proliferator-activated receptor gamma (Homo sapiens) (UniProt P37231); assay: Binding affinity to pBind-PPARgamma-LBD (unknown origin) transfected in HEK293T cells co-transfected with pG5-Luc at 5 uM incubated for 12 hrs by luciferase reporter gene assay; format: cell-based
T2 sequence (whole entry): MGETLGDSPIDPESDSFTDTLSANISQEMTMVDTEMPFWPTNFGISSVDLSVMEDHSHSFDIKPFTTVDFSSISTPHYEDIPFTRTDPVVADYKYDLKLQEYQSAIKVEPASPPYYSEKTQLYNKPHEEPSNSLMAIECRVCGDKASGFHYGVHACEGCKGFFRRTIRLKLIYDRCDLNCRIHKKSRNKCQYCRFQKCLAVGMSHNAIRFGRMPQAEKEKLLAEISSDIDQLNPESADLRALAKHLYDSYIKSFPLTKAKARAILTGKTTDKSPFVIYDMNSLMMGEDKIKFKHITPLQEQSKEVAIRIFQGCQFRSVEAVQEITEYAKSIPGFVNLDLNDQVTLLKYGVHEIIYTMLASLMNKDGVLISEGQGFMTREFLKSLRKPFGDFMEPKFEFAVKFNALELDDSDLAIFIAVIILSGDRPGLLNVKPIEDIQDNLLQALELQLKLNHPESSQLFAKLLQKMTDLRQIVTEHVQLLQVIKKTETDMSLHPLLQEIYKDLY

[23] = system: HepG2; assay: Induction of apoptosis in human HepG2 cells assessed as necrotic cells at 10 uM incubated for 12 hrs by AnnexinV-FITC/PI staining based flow cytometry (reference value: 0.92%); format: functional
[24] = system: HepG2; assay: Induction of apoptosis in human HepG2 cells assessed as late apoptotic cells at 10 uM incubated for 12 hrs by AnnexinV-FITC/PI staining based flow cytometry (reference value: 1.91%); format: functional
[25] = Selectivity index, ratio of IC50 for human L02 cells to IC50 for human MDA-MB-231 cells by MTT assay; format: toxicity; settings: L02 cells versus MDA-MB-231 cells, read-out: Ratio IC50
[26] = Selectivity index, ratio of IC50 for human L02 cells to IC50 for human HepG2 cells by MTT assay; format: toxicity; settings: L02 cells versus HepG2 cells, read-out: Ratio IC50
[27] = Toxicity in BALB/c nude mouse xenografted with human HepG2 cells assessed as effect on spleen damage at 50 mg/kg ip administered once every day for 14 days by H and E staining based analysis; format: organism-based; settings: in vivo, 336 h, time 14 day
[28] = system: HepG2; assay: Induction of apoptosis in human HepG2 cells assessed as mitochondrial membrane potential loss by measuring proportion of cells with depolarized MMP at 10 uM incubated for 12 hrs by JC-1 staining based flow cytometry (reference value: 5.81%); format: functional

T1 sequence (P22736 whole entry): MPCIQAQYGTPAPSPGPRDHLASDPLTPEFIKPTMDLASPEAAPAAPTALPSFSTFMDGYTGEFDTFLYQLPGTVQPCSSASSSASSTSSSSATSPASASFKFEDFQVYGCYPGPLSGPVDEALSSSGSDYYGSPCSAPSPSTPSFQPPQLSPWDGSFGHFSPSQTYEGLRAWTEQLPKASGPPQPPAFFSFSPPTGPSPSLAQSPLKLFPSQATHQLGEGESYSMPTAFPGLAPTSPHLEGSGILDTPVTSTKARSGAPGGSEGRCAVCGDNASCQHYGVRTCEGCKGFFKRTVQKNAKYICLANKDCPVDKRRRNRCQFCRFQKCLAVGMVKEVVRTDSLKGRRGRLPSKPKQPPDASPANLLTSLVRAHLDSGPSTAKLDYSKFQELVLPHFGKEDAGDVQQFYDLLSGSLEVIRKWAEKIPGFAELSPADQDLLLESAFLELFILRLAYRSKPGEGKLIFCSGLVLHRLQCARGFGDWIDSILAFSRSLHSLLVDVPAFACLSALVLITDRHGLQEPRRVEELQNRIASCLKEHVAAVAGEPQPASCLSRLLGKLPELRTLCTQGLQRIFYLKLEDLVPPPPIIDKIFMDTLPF

With `CN(C)CCCNC(=O)c1cc2cc(Nc3nccc(-c4cccnc4)n3)ccc2[nH]1` as the compound, how does the selectivity ratio [1] read?
The selectivity ratio was 1.9.

And the selectivity ratio [2]?
The selectivity ratio was 3.

And the viability at 48 h, 10 µM [3]?
Its viability at 48 h, 10 µM is 53.4%.

What about the selectivity ratio [4] of the same compound?
The selectivity ratio was 3.14.

And the IC50 [5]?
The IC50 was 3.58 µM.

And the Activity [6]?
The Activity was “Active”.

And the IC50 [7]?
Its IC50 is 5.91 µM.

And the IC50 [8]?
The IC50 was 3.24 µM.

And the viability at 10 µM [9]?
The viability at 10 µM was 43.7%.

What about the Activity [10] of the same compound?
Its Activity is “Non-Toxic”.

And the viability at 10 µM [11]?
The viability at 10 µM was 19.4%.

And the Activity [12]?
The Activity was “Active”.

What about the Activity [13] of the same compound?
The Activity was “Active”.

And the Activity [14]?
Its Activity is “Active”.

And the viability at 10 µM [15]?
Its viability at 10 µM is 95.1%.

And the IC50 at 48 h [16]?
The IC50 at 48 h was 11.2 µM.

And the Activity [17]?
Its Activity is “Non-Toxic”.

And the viability at 10 µM [18]?
The viability at 10 µM was 72.7%.

And the Activity [19]?
The Activity was “Active”.

And the Activity [20]?
The Activity was 0.75%.

And the Activity [21]?
The Activity was “Active”.

And the Activity [22]?
Its Activity is “inactive”.

What about the Activity [23] of the same compound?
The Activity was 2.83%.

And the Activity [24]?
The Activity was 8.01%.

What about the selectivity ratio [25] of the same compound?
Its selectivity ratio is 3.47.

And the selectivity ratio [26]?
Its selectivity ratio is 1.24.

What about the Activity [27] of the same compound?
Its Activity is “Non-Toxic”.

What about the Activity [28] of the same compound?
The Activity was 21.34%.

Source: ChEMBL document CHEMBL5247610, “Discovery of 5-((4-(pyridin-3-yl)pyrimidin-2-yl)amino)-1H-indole-2-carboxamide derivatives as novel anti-cancer agents targeting Nur77” (Eur J Med Chem, 2022)
